Assay results: PMC4127593, “Novel human D-amino acid oxidase inhibitors stabilize an active-site lid-open conformation” (Bioscience Reports, 2014)
“Also recorded” adds a separate entry of the source. Where two headings read alike, the source gives them in different places.

Columns and labels:
[1] = molecular target: T1, hDAAO (Homo sapiens, UniProt P14920); test: D-serine and FAD saturation experiments (mechanism of inhibition, Ki); type: biochemical; settings: for Mechanism of inhibition: D-serine saturation at 40 μM FAD, FAD saturation at 50 mM D-serine; for Ki: global fit of D-serine saturation data to equations (3) and (4), mean±S.D.
T1 construct: hexaHis (N); made in house
T1 sequence (P14920 whole entry): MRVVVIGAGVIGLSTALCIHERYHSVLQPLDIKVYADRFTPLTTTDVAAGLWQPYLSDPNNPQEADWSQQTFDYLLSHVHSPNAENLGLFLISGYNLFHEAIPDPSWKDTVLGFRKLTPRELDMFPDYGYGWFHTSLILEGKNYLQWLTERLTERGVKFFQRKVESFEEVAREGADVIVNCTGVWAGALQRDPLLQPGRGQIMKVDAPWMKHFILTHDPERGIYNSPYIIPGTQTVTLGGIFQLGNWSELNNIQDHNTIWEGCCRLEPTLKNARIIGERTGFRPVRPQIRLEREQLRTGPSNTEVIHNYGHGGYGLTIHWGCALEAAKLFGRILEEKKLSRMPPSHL
Method: To determine inhibitor mechanism of action (D-serine- or FAD-competition), saturation experiments were performed using the Amplex Red system. Keeping D-serine or FAD constant, concentration of the other substrate was varied, and hDAAO enzymatic product was measured fluorescently as described above; these saturation tests were conducted in the presence of variable amounts of inhibitor. In these experiments, there was no preincubation period, such that hDAAO was exposed to D-serine, FAD and inhibitor simultaneously. […] After a 1 h reaction, product was measured using the FlexStation II in the endpoint mode. Data were plotted and fit with a one site, specific binding equation (Graphpad Prism): (2) y=Vmax×x/KM+x
Equation (2) permitted a determination of Vmax and KM at variable inhibitor concentration for a determination of competitive, uncompetitive or non-competitive profile. For D-serine competitive inhibitors, the same data were fit using the GraphPad Prism ‘Competitive inhibition’ equation to derive a global Ki value: (3) KM,obs=KM(1+[I]Ki) (4) y=Vmax×x/KM,obs+x

[2] = molecular target: T2, hDAAO (human D-amino acid oxidase) (Homo sapiens, UniProt P14920); test: hDAAO inhibition assay, Amplex Red format, D-serine as substrate; type: biochemical; settings: for IC50: 0.73 nM His-hDAAO, 5 mM D-serine, 450 nM FAD, pH 7.4, mean±S.D.; for IC50 values relative to compound 3: in several of the biochemical assays
T2 construct: hexaHis (N); made in house
T2 sequence (P14920 whole entry): as above
Method: (§1) All enzymatic assays were conducted at room temperature (23–24°C) in 96-well plate format. Dose response data to generate IC50 data were analysed via Prism (Graphpad Software) or by a script executed by Pipeline Pilot (Accelrys).
(§2) For our assay, N-terminal hexaHis (His)-tagged hDAAO (prepared as described previously [32]), HRP (horseradish peroxidase), FAD, and compound inhibitor were incubated for 20–30 min. After that pre-incubation period, D-serine and Amplex Red were added and reaction proceeded for 1 hour. Fluorescent product, caused by hydrogen peroxide-dependent, Amplex Red oxidation during hDAAO-catalysed substrate turnover, was measured on a FlexStation II (Molecular Devices) in endpoint mode with these settings: excitation 530 nm, emission 590 nm, cutoff 590 nm and photomultiplier tube on Low. […] For the counter assay, hDAAO was omitted and 800 nM hydrogen peroxide (Sigma) was included.

[3] = molecular target: HRP/hydrogen peroxide detection system (Armoracia rusticana, UniProt P00433); test: Counter assay (Amplex Red; hDAAO omitted, hydrogen peroxide included); settings: Amplex Red detection system without hDAAO
Sequence of HRP/hydrogen peroxide detection system (P00433 31-338): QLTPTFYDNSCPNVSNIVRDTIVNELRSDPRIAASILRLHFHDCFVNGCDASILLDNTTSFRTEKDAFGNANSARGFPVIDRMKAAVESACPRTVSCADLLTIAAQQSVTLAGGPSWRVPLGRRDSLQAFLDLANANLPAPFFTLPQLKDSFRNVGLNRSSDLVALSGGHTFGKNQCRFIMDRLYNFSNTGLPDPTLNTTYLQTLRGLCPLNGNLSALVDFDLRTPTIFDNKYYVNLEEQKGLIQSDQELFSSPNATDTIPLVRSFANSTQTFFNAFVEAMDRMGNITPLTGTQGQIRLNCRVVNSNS
Method: as §2

[4] = molecular target: rDAAO (rat DAAO) (Rattus norvegicus, UniProt O35078); test: rDAAO inhibition assay, Amplex Red format
Sequence of rDAAO (rat DAAO) (O35078 whole entry): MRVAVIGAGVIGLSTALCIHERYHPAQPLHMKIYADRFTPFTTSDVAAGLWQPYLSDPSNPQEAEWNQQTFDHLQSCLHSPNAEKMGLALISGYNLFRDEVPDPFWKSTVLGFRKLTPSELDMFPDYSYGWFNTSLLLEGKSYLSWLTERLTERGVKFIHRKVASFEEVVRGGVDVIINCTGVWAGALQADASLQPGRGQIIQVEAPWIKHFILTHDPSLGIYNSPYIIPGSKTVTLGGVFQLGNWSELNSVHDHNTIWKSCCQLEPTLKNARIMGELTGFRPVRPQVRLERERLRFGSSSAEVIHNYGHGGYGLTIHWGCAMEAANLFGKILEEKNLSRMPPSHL
Method: as §1, §2

[5] = molecular target: T1, hDAAO; test: Jump-dilution assay (reversibility, apparent dissociation rate); type: biochemical; settings: for koff: jump-dilution
Method: The assay mixture was similar to that described above for the Amplex Red-based assay system. […] After a 30 min pre-incubation to form inhibited complexes, 195 μl of reaction mixture was added. Compared with the standard assay, 50 mM D-serine was utilized as the hDAAO substrate. […] Immediately after adding the reaction mixture, fluorescent substrate was monitored kinetically by the FlexStation II. Data were fit using the following equation [38] in which Pis the fluorescent product formed, tis the time, vs is the final, steady-state reaction velocity, vi is the initial reaction velocity, and k is the koff: (1) [P]=vst+vi−vs/k(1−e^−kt)

[6] = molecular target: T1, hDAAO; test: LC–MS-based hDAAO inhibition assay, D-phenylglycine as substrate; type: biochemical; settings: 5 nM His-hDAAO, 5 mM D-phenylglycine, 450 nM FAD; mean±S.D.
Method: as §1
For the LC–MS-based hDAAO inhibition assay, his-hDAAO, FAD and compound inhibitors were incubated for 20–30 min. After that period, D-phenylglycine was added and reaction proceeded for 1 h. […] Following the 1 h enzymatic reaction, an equal volume of 100% (v/v) acetonitrile was added. Quantitation of benzylformic acid concentrations was performed using negative ion liquid chromatography/mass spectrometry/mass spectrometry (LC–MS/MS). A 2 μl aliquot of sample was injected onto an ultra-high performance liquid chromatographic system (UPLC Waters Corp) equipped with an API 5500 QTrap mass spectrometer detector (Applied Biosystems/MDS Sciex) operated in the negative TurboIonSpray® mode. […] The mobile phases used for elution consisted of 1.0 mM ammonium formate with 0.2% (v/v) formic acid in water (A) and 1.0 mM ammonium formate with 0.2% (v/v) formic acid in acetonitrile (B) at a total flow rate of 0.600 ml/min. Wash solvent 1 was 3% formic acid in acetonitrile and wash solvent 2 was 3% formic acid in water. Calibration standards were injected once before and once after the analysis of unknown samples to construct a standard curve. A linear weighted (1/concentration^2) regression analysis of the analyte peak area ratio versus theoretical concentration was used to produce calibration curves from standards.

[7] = In vivo brain penetration after intraperitoneal dosing; settings: mouse, brain and plasma, ip; mice, dosed intraperitoneally; results not shown; read-out: brain:plasma compound ratio
From the text: Multiple groups have pursued the discovery of potent, brain-penetrant, drug-like hDAAO inhibitors for use in treating schizophrenia and other nervous system disorders. Thus, the identification of a novel hDAAO conformation could guide the design of the next generation of hDAAO inhibitors. […] Like all existing high-affinity hDAAO inhibitors, interaction of these compounds with Arg^283 of hDAAO requires a carboxylic acid or other electronegative moiety, a feature that is known to reduce brain penetration. […] Potency gained by optimizing ligand binding in these hDAAO regions could conceivably reduce the need for extensive Arg^283 association, and, thus, could facilitate the creation of novel inhibitors of hDAAO.

[8] = 80 μM FAD pre-incubation, 50 mM D-serine, mean±S.D.

| SMILES | Mechanism of inhibition [1] | IC50 [2] | IC50 [4] | IC50 [6] | also measured |
| --- | --- | --- | --- | --- | --- |
| Nc1ncnc2c1ncn2[C@@H]1O[C@H](COP(=O)(O)OP(=O)(O)O)[C@@H](O)[C@H]1O [ADP, reference compound] | FAD-competitive inhibitor of hDAAO; also recorded: D-serine mixed competition, FAD competitive | 580000 ± 80000 nM | – | – | – |
| O=C(O)c1cc2occc2[nH]1 [Compound 1, 4H-furo[3,2-b]pyrrole-5-carboxylic acid, reference compound] | – | – | 87 ± 11 nM | – | inhibition in the counter assay [3]: did not display inhibition |
| O=C(O)CCc1cc2c(-c3ccccc3)cc(=O)oc2cc1O [Compound 2, 3-(7-hydroxy-2-oxo-4-phenyl-2H-chromen-6-yl)propanoic acid] | D-serine competitive, FAD uncompetitive | 37 ± 14 nM | 4000 ± 1400 nM | 230 ± 180 nM | hDAAO inhibition after dilution ([5]; 5 nM compound, 50 mM D-serine recovery conditions): no significant inhibition; reversibility of inhibition ([5]; 200 nM then 5 nM jump dilution): reversible inhibition; koff [5, 8]: 0.12 ± 0.02 (8) per min; inhibition in the counter assay [3]: did not display inhibition; Ki [1]: 7 ± 1.4 nM; inhibition at 0.2 µM ([2]; 200 nM compound): > 80%; Kp [7]: < 0.05 |
| O=c1cc(-c2ccccc2)c2cc(CCc3cc(O)c(=O)[nH]n3)c(O)cc2o1 [Compound 3, 4-hydroxy-6-(2-(7-hydroxy-2-oxo-4-phenyl-2H-chromen-6-yl)ethyl)pyridazin-3(2H)-one] | D-serine competitive, FAD uncompetitive | 20 ± 5 nM | 47 ± 16 nM | 110 ± 20 nM | dissociative half-life ([5]; from koff): ~1 h; koff [5, 8]: 0.015 ± 0.03 (3) per min; koff ([5]; read-out: off-rate (koff) (converted)): 0.00025 s⁻¹; Ki [1]: < 10 nM; more potent as hDAAO inhibitor than compound 2 ([2]; relative to compound 2): approximately 2 fold; Kp [7]: < 0.05 |
| Cc1cc(=O)oc2cc(O)c(CCC(=O)O)cc12 [Compound 4] | – | 18000 nM | – | – | hDAAO inhibitory potency weaker than compound 2 ([2]; relative to compound 2): approximately 500 fold |
| O=c1[nH]nc(CCc2ccc(O)cc2O)cc1O [Compound 5, 6-(2,4-dihydroxyphenethyl)-4-hydroxypyridazin-3(2H)-one] | – | 54 ± 10 nM | 130 nM | 13 nM | IC50 values relative to compound 3 [2]: 5–10 fold |
| COc1ccc(CCc2cc(O)c(=O)[nH]n2)c(OC)c1 [Compound 6, 6-(2,4-dimethoxyphenethyl)-4-hydroxypyridazin-3(2H)-one] | – | 7.2 ± 1 nM | 83 ± 7 nM | 24 nM | IC50 values relative to compound 3 [2]: 5–10 fold |
